Source: ChEMBL document CHEMBL1275318, “The preparation of bi-functional organophosphine oxides as potential antitumor agents” (Eur J Med Chem, 2010)
In brackets after ≈: the same amount, converted by molar mass. Several values for one entry are separate records, joined by “and”; a condition that tells them apart may be missing. Equal entries are not always repeated. Activity calls are given as the source filed them. The rule behind the calls is not given here.

Experiments:
[1] = Cytotoxicity against human Hep3B cells after 48 hrs by SRB assay; assay type: functional, cell-based, Hep 3B2
Hep 3B2 = assay: Antitumor activity against human Hep3B cells xenografted in athymic nude mouse assessed as retardation of tumor growth at 10 mg/kg/day, ip for 4 consecutive days; assay type: functional, organism-based
Mus musculus [2] = assay: Toxicity in human Hep3B cells xenografted athymic nude mouse assessed as induction of necrotic damage in kidney at 10 mg/kg/day, ip for 4 consecutive days; assay type: organism-based, Hep 3B2; parameters: route intraperitoneal; settings: in vivo
Mus musculus [3] = assay: Toxicity in human Hep3B cells xenografted athymic nude mouse assessed as induction of necrotic damage in liver at 10 mg/kg/day, ip for 4 consecutive days; assay type: organism-based, Hep 3B2; parameters: route intraperitoneal; settings: in vivo
[4] = Homo sapiens, Hep3B, 48 h, read-out: IC50

`COc1cc(P(c2ccccc2)c2ccccc2)c(-c2c(P(c3ccccc3)c3ccccc3)cc(OC)nc2OC)c(OC)n1` gave an IC50 [1, 4] of over 50 µg/mL.
In the case of `COc1cc(P(=O)(c2ccccc2)c2ccccc2)c(-c2c(P(=O)(c3ccccc3)c3ccccc3)cc(OC)nc2OC)c(OC)n1`, the IC50 [1, 4] is reported as 47 µg/mL (≈ 69.5 µM) and the IC50 ([1]; hep 3b2) is reported as 43 µg/mL and 42 µg/mL.
With `c1ccc(P(c2ccccc2)c2ccc3ccccc3c2-c2c(P(c3ccccc3)c3ccccc3)ccc3ccccc23)cc1` the IC50 [1, 4] was over 50 µg/mL.
For `O=P(c1ccccc1)(c1ccccc1)c1ccc2ccccc2c1-c1c(P(=O)(c2ccccc2)c2ccccc2)ccc2ccccc12`, the IC50 [1, 4] was 14 µg/mL (≈ 21.4 µM), the IC50 ([1]; hep 3b2) was 12 µg/mL (≈ 18.3 µM) and the inhibition (Hep 3B2) was “Active”. For the same molecule, the Activity (Mus musculus [2]) was “Non-toxic” and the Activity (Mus musculus [3]) was “Non-toxic”.
